The subject of assay [1] is HeLa. The assay can be described thus: Ratio of 5-fluorouracil IC50 to compound IC50 for human HeLa cells. The assay is classed as functional.
For assay [2], the system named is MCF7. The assay is described as follows: Ratio of 5-fluorouracil IC50 to compound IC50 for human MCF7 cells. The assay is classed as functional.
The subject of assay [3] is HEp-2. The assay is described as follows: Ratio of 5-fluorouracil IC50 to compound IC50 for human Hep2 cells. The assay is classed as functional.
A short description of assay [4]: Ratio of 5-fluorouracil IC50 to compound IC50 for human MDA-MB-435S cells. The assay is classed as functional.
Assay [5] relates to SW480. The assay can be described thus: Ratio of 5-fluorouracil IC50 to compound IC50 for human SW480 cells. The assay is classed as functional.
The nature of assay [6]: Ratio of 5-fluorouracil IC50 to compound IC50 for human LM7 cells. The assay is classed as functional.
The subject of assay [7] is MCF7. The assay can be described thus: Cytotoxicity against human MCF7 cells after 72 hrs by MTT assay. The assay is classed as functional, cell-based. The settings on record: MCF7, 72 h.
Assay [8] concerns HEp-2. The assay is described as follows: Cytotoxicity against human Hep2 cells after 72 hrs by MTT assay. Particulars: HEp-2, 72 h. The assay is classed as functional, cell-based.
A short description of assay [9]: Cytotoxicity against human MDA-MB-435S cells after 72 hrs by MTT assay. The assay is classed as functional, cell-based.
The subject of assay [10] is SW480. The assay is described as follows: Cytotoxicity against human SW480 cells after 72 hrs by MTT assay. Particulars: SW480, 72 h. The assay is classed as functional, cell-based.
Assay [11] in a line: Cytotoxicity against human LM7 cells after 72 hrs by MTT assay. Particulars: LM7, 72 h. The assay is classed as functional, cell-based.
Assay [12] deals with HeLa. The assay can be described thus: Cytotoxicity against human HeLa cells after 72 hrs by MTT assay. The assay is classed as functional, cell-based.

Bounds are passed on as bounds.

On to `Cc1nnc(SCc2coc3ccccc3c2=O)o1`, for which the “Ratio IC50” value is 0.7 in the assay on HeLa [1]; 0.5 in the assay on MCF7 [2]; 33.9 in the assay on HEp-2 [3]; 8.3 in assay [4]; 2.3 in the assay with SW480 [5]; 6.6 in assay [6]. Also, the IC50 came out at 4.6 µM in the assay with MCF7 [7]; 3.8 µM with HEp-2 [8]; 1.2 µM in assay [9]; 0.79 µM in the assay with SW480 [10]; 3.5 µM in [11]; 1.4 µM in the assay on HeLa [12].
For the compound `O=c1cc(SCn2cnc3c(Cl)cccc3c2=O)sc2ccccc12`, the IC50 (in the assay on MCF7 [7]; with HEp-2 [8]; in [9]; with SW480 [10]; in assay [11]; in the assay with HeLa [12]) was over 25 µM in each case.
Consider `Cc1ccc2oc(CSc3nnc(N)s3)cc(=O)c2c1`, for which the IC50 (in the assay with MCF7 [7]; in the assay on HEp-2 [8]; in [9]; with SW480 [10]; in assay [11]; with HeLa [12]) was over 25 µM each time.
Consider `Cc1cc(C)nc(SCn2cnc3ccccc3c2=O)n1`, for which the IC50 (with MCF7 [7]; in the assay on HEp-2 [8]; in assay [9]; in the assay on SW480 [10]; in assay [11]; in the assay with HeLa [12]) was over 25 µM each time.
Regarding `Cc1nnc(SCc2cc(=O)c3cc(Cl)ccc3o2)s1`, the IC50 (with MCF7 [7]; in the assay on HEp-2 [8]; in assay [9]; with SW480 [10]; in assay [11]; in the assay on HeLa [12]) was over 25 µM throughout.
On to `Cc1ccc2oc(CSc3nnc(C)s3)cc(=O)c2c1`, for which the IC50 (in the assay on MCF7 [7]; with HEp-2 [8]; in assay [9]; in the assay with SW480 [10]; in assay [11]; with HeLa [12]) was over 25 µM throughout.
As to `Cc1nnc(SCc2cc(=O)c3ccccc3o2)o1`, the IC50 (in the assay with MCF7 [7]; in the assay with HEp-2 [8]; in assay [9]; in the assay with SW480 [10]; in assay [11]; in the assay on HeLa [12]) was over 25 µM in each case.
In the case of `Nc1nnc(SCc2cc(=O)c3ccccc3o2)s1`, the half-inhibitory concentration (IC50) (in the assay with MCF7 [7]; in the assay with HEp-2 [8]; in assay [9]; in the assay on SW480 [10]; in [11]; in the assay on HeLa [12]) was over 25 µM in each case.
As for `Nc1nnc(SCc2cc(=O)c3cc(Cl)ccc3o2)s1`, the IC50 (with MCF7 [7]; in the assay with HEp-2 [8]; in assay [9]; in the assay with SW480 [10]; in [11]; with HeLa [12]) was over 25 µM throughout.
Consider `Cc1cc(C)n2nc(SCc3nnc(SCc4coc5ccccc5c4=O)n3N)nc2n1`, for which the IC50 in the assay with MCF7 [7] is over 25 µM; with HEp-2 [8], 7.1 µM; in assay [9] it was 3 µM; in the assay with SW480 [10] it was 3.6 µM; in assay [11] it was 1.9 µM; in the assay with HeLa [12], over 25 µM.
On to `Cc1nnc(Sc2coc3ccccc3c2=O)s1`, for which the IC50 (with MCF7 [7]; with HEp-2 [8]; in assay [9]; with SW480 [10]; in assay [11]; with HeLa [12]) was over 50 µM throughout.
Regarding `Nc1nnc(SCn2cnc3ccccc3c2=O)s1`, the IC50 (in the assay on MCF7 [7]; in the assay with HEp-2 [8]; in assay [9]; with SW480 [10]; in [11]; in the assay with HeLa [12]) was over 25 µM in each case.
Turning to `Cc1cc(C)n2nc(SCc3nnc(SCc4coc5ccccc5c4=O)s3)nc2n1`, the IC50 in the assay on MCF7 [7] is 9.5 µM; with HEp-2 [8] it was 5.3 µM; in assay [9] it was 1.1 µM; in the assay on SW480 [10], 1.5 µM; in assay [11], 2.5 µM; in the assay on HeLa [12] it was over 25 µM.
On to `Cc1cc(C)n2nc(SCn3cnc4c(Cl)cccc4c3=O)nc2n1`, for which the IC50 (with MCF7 [7]; in the assay with HEp-2 [8]; in [9]; in the assay on SW480 [10]; in [11]; in the assay with HeLa [12]) was over 25 µM throughout.
With `Cc1nnc(SCc2cc(=O)c3cc(Cl)ccc3o2)o1`, the IC50 (in the assay on MCF7 [7]; in the assay with HEp-2 [8]; in assay [9]; in the assay on SW480 [10]; in assay [11]; in the assay on HeLa [12]) was over 25 µM in each case.
With `Cc1cc(C)n2nc(SCc3nnc(SCc4cc(=O)c5ccccc5o4)o3)nc2n1`, the IC50 (in the assay on MCF7 [7]; in the assay on HEp-2 [8]; in assay [9]; in the assay with SW480 [10]; in [11]; with HeLa [12]) was over 25 µM throughout.
Take `Cc1cc(C)n2nc(SCc3cc(=O)c4ccccc4o3)nc2n1`: the IC50 (in the assay on MCF7 [7]; in the assay on HEp-2 [8]; in assay [9]; in the assay on SW480 [10]; in assay [11]; in the assay on HeLa [12]) was over 25 µM each time.
In the case of `Nc1nc(SCc2coc3ccccc3c2=O)n[nH]1`, the IC50 in the assay on MCF7 [7] was over 25 µM; in the assay with HEp-2 [8], 21.3 µM; in assay [9] it was 8.3 µM; in the assay on SW480 [10], 21.4 µM; in assay [11], 16.9 µM; with HeLa [12], over 25 µM.
As for `O=c1cc(CSc2nc3ccccc3s2)oc2ccccc12`, the IC50 (with MCF7 [7]; in the assay on HEp-2 [8]; in assay [9]; in the assay on SW480 [10]; in [11]; in the assay on HeLa [12]) was over 25 µM each time.
Regarding `Cc1cc(C)nc(SCn2cnc3c(Cl)cccc3c2=O)n1`, the IC50 (with MCF7 [7]; in the assay on HEp-2 [8]; in assay [9]; in the assay on SW480 [10]; in [11]; in the assay on HeLa [12]) was over 25 µM throughout.
Regarding `Cc1nnc(SCc2coc3ccc(Cl)cc3c2=O)s1`, the IC50 with MCF7 [7] was 13.4 µM; in the assay with HEp-2 [8], 4.2 µM; in assay [9], 2.2 µM; in the assay on SW480 [10], 3.2 µM; in assay [11] it was 7.6 µM; in the assay with HeLa [12], 9.7 µM.
Consider `Cc1cc(C)nc(SCc2cc(=O)c3cc(Cl)ccc3o2)n1`, for which the IC50 (in the assay on MCF7 [7]; with HEp-2 [8]; in assay [9]; in the assay on SW480 [10]; in assay [11]; in the assay with HeLa [12]) was over 25 µM in each case.
Turning to `O=c1c(CSc2cc(=O)c3ccccc3s2)coc2ccccc12`, the “Ratio IC50” value in the assay with HeLa [1] stood at 0.7; with MCF7 [2], 0.5; in the assay with HEp-2 [3] it was 33.9; in [4], 8.3; with SW480 [5], 2.3; in assay [6], 6.6. The IC50 in the assay on MCF7 [7] is 5.4 µM; in the assay on HEp-2 [8], 1.4 µM; in assay [9] it was 1.7 µM; with SW480 [10], 3.6 µM; in assay [11] it was 2.8 µM; with HeLa [12], 2.6 µM.
`Cc1cc(C)n2nc(SCn3cnc4ccccc4c3=O)nc2n1`: the IC50 (in the assay on MCF7 [7]; in the assay on HEp-2 [8]; in assay [9]; in the assay with SW480 [10]; in assay [11]; in the assay on HeLa [12]) was over 25 µM in each case.
Regarding `Cc1cc(C)n2nc(SCc3nnc(SCc4coc5ccccc5c4=O)n3-c3ccccc3)nc2n1`, the IC50 in the assay with MCF7 [7] was over 25 µM; with HEp-2 [8], 22.1 µM; in assay [9] it was 2.9 µM; in the assay on SW480 [10], 12.4 µM; in [11], 16.6 µM; with HeLa [12] it was over 25 µM.
In the case of `Cc1ccc2oc(CSc3nc4nc(C)cc(C)n4n3)cc(=O)c2c1`, the IC50 (in the assay on MCF7 [7]; with HEp-2 [8]; in assay [9]; in the assay with SW480 [10]; in assay [11]; in the assay on HeLa [12]) was over 25 µM each time.
Take `Cc1cc(C)nc(SCc2coc3ccccc3c2=O)n1`: the IC50 with MCF7 [7] is over 25 µM; with HEp-2 [8], 55.1 µM; in [9] it was over 25 µM; with SW480 [10], over 25 µM; in assay [11], over 25 µM; in the assay with HeLa [12], over 25 µM.
`Cc1nnc(Sc2c(C)oc3ccccc3c2=O)o1`: the IC50 (in the assay with MCF7 [7]; in the assay with HEp-2 [8]; in assay [9]; with SW480 [10]; in [11]; with HeLa [12]) was over 50 µM throughout.
As for `O=c1c(CSc2nc3ccccc3o2)coc2ccccc12`, the IC50 is 4.8 µM in the assay on MCF7 [7]; 2.7 µM in the assay with HEp-2 [8]; 1.4 µM in [9]; 3.2 µM in the assay on SW480 [10]; 5.3 µM in assay [11]; over 25 µM in the assay with HeLa [12].
On to `Cc1cc(O)cc2oc(=O)cc(CSc3nc4ccccc4o3)c12`, for which the IC50 (with MCF7 [7]; with HEp-2 [8]; in [9]; with SW480 [10]; in assay [11]; with HeLa [12]) was over 25 µM in each case.
As for `Cc1ccc2oc(CSc3nnc(C)o3)cc(=O)c2c1`, the IC50 (in the assay on MCF7 [7]; in the assay with HEp-2 [8]; in assay [9]; with SW480 [10]; in assay [11]; in the assay on HeLa [12]) was over 25 µM throughout.
